Test results from patent publication US20240131356A1, “COMBINATION OF INTRACELLULAR AND EXTRACELLULAR PHOTOSENSITIZERS FOR TREATMENT OF BACTERIAL INFECTION” (priority 2021, published 2024).
Where two headings read alike, the source gives them in different places.

Tested on: hrtAB promoter (HssRS activation; CgoX activation)
Assay: XylE colorimetric reporter assay (phrt.xylE), activation of HssRS / hrtAB expression
Format: cell-based, Staphylococcus aureus strain Newman
Conditions: for Specifc Activity @ 30 μM: 30 μM compound, XylE activity normalized to protein; for Specifc Activity @ 30 μM / Specifc Activity (nMol/min*mg), data collected at 10 uM: 6 h subculture; for Specifc Activity (nMol/min*mg), data collected at 10 uM: footnote a: data collected at 10 uM; for XylE activity in comparison to '8882 at 10 μM: six-hour exposure (FIG. 2A); for XylE activity in comparison to '8882 at 30 μM: six-hour exposure (FIG. 2B); for EC50: Staphylococcus aureus, NEWMAN; for XylE activity (ability to activate HssRS) in comparison to '8882: dose not stated
Procedure: To maximize the production of coproporphyrin III and thereby increase blue-light mediated killing of S. aureus, synthesized analogs of VU0038882 were tested. To determine the relative efficacy of each analog, a Newman strain of S. aureus, transformed with the phrt.xylE (11) reporter vector was used. This reporter allows for colorimetric assessment of intracellular heme production. To perform the assay, each individual analog was added to 3 mL of TSB+10 μg/mL chloramphenicol to reach a concentration of 30 μM, and then 700 μL of this newly made 30 μM solution was added to 1.3 mL of remaining TSB+10 μg/mL chloramphenicol media to create the 10 μM concentration. Either 10 μM or 30 μM concentrations of compounds in medium were then aliquoted into three 0.5 mL replicate tubes. Three separate 16- to 18-hour overnight subcultures from isolated colonies were back-diluted 1:100 into the tubes creating three biological replicates and were subcultured for 6 hours at 37° C. and 180 rpm. After incubation, the cells were pelleted at 16,400 g for 5 minutes and the supernatant aspirated before washing with 0.5 mL of 20 mM potassium phosphate wash buffer. After pelleting the cells again at 16,400 g for 5 minutes the wash buffer was aspirated, and the pellets were stored at −80° C. until further use.
When the cells were ready to be lysed and data collected, samples were removed from the −80° C. freezer, allowed to thaw, and resuspended in 150 μL of lysis buffer (100 mM potassium phosphate pH=8.0, 10% v/v acetone, 20 μg/mL lysostaphin) before incubation in a 37° C. bead bath for 20 minutes and then cooled for 5 minutes on ice. The samples were then centrifuged at 16,400 g and 4° C. for 30 minutes to separate the pellet from the lysate, which was then placed into a 96-well microtiter plate and kept on ice. The lysate from each sample was pipetted into 20 μL aliquots on a round-bottom or flat-bottom 96-well plate on ice. The round bottom plate was labeled for bicinchoninic acid assay (BCA) protein content analysis, and 10 μL of BCA standards was added to extra wells on the plate. Protein quantification was performed using a Pierce BCA Protein Assay Kit as per the manufacturer's instructions. While the BCA plate was in the incubator, the flat-bottom plate was prepared by thawing 1 M catechol on ice and making 100 mM potassium phosphate (pH=8.0) assay buffer. After preparing a kinetic read at 375 nm for 10 minutes with a minimal interval between reads, the catechol was diluted 1:1,000 into the assay buffer and quickly dispensed into a sterile basin, then 200 μL of the solution was pipetted into each well using a multichannel pipette. All data were exported into Excel software (Microsoft) and analyzed for specific activity of each compound and activity relative to VU0038882 controls.
After 219 analogs had been screened, the compounds with the best percent VU0038882 activity were tested again following the same protocol, but with twelve replicates per concentration with data expressed as averages ±the standard deviation (SD). Additionally, the top-performing compounds were tested using the XylE protocol with a concentration gradient to determine their half maximal effective concentration (EC50) values.
Photosensitizer-conjugated antibodies expose bacteria to reactive oxygen species (ROS) externally, but this treatment can be paired with small molecule treatment to generate ROS internally via heme biosynthesis pathway intermediates. To discover new compounds capable of activating CgoX and/or displaying less toxicity to eukaryotic cells, a medicinal chemistry campaign was initatied based on systematic alternation of the '8882 structure. Each new analog was tested for the ability to activate HssRS using the previously described XylE colorimetric assay that employs a reporter construct in which the hrtAB promoter is fused to a xylE reporter gene. […]

Compound | Specifc Activity @ 30 μM | further results
Cc1ccc(-c2cc(-c3ccc4ccccc4c3O)n[nH]2)o1 ['9624, 2-(5-(5-Methylfuran-2-yl)-1H-pyrazol-3-yl)naphthalen-1-ol] | 1.152 ± 0.382 nmol/min/mg | –
Cc1c(-c2ccccc2O)n[nH]c1-c1ccco1 [Compound 0394, 2-(5-(Furan-2-yl)-4-methyl-1H-pyrazol-3-yl)phenol] | 0.0287 ± 0.0198 nmol/min/mg | –
Oc1c(-c2cc(-c3cnco3)[nH]n2)ccc2ccccc12 [′0071, 2-(5-(Oxazol-5-yl)-1H-pyrazol-3-yl)naphthalen-1-ol] | – | Specifc Activity (nMol/min*mg), data collected at 10 uM: 1.152 ± 0.263^a nMol/min*mg
CC(C)Nc1cc(-c2ccc3ccccc3c2O)n[nH]1 [′0457, 2-(5-(isopropylamino)-1H-pyrazol-3-yl)naphthalen-1-ol] | 0.5082 ± 0.770 nmol/min/mg | –
Oc1c(-c2n[nH]c(-c3ccco3)n2)ccc2ccccc12 [′0485, 2-(5-(Furan-2-yl)-1H-1,2,4-triazol-3-yl)naphthalen-1-ol] | 1.697 ± 0.335 nmol/min/mg | –
Oc1c(-c2nnc(-c3ccco3)o2)ccc2ccccc12 [′0527, 2-(5-(furan-2-yl)-1,3,4-oxadiazol-2-yl)naphthalen-1-ol] | 0.2270 ± 0.0147 nmol/min/mg | –
Oc1c(-c2n[nH]c3c2CCc2ccoc2-3)ccc2ccccc12 [′1790, 2-(4,5-Dihydro-2H-furo[3,2-g]indazol-3-yl)naphthalen-1-ol] | 4.146 ± 2.397 nmol/min/mg | –
Cc1nn(C)c(C)c1-c1cc(-c2ccc3ccccc3c2O)n[nH]1 [′2069, 2-(1′,3′,5′-trimethyl-1′H,2H-[3,4′-bipyrazol]-5-yl)naphthalen-1-ol] | 10.46 ± 1.54 nmol/min/mg | XylE activity in comparison to '8882 at 10 μM: weaker activity compared to '8882; XylE activity in comparison to '8882 at 30 μM: equivalent; EC50: 28.5 µM; EC50 (read-out: logEC50 (converted)): 28.5 µM
Oc1cc2ccccc2cc1-c1cc(-c2ccco2)[nH]n1 [′3918, 3-(5-(Furan-2-yl)-1H-pyrazol-3-yl)naphthalen-2-ol] | 0.2543 ± 0.127 nmol/min/mg | –
Nc1ncccc1-c1cc(-c2ccco2)[nH]n1 [′3989, 3-(5-(Furan-2-yl)-1H-pyrazol-3-yl)pyridin-2-amine] | 0.2491 ± 0.2546 nmol/min/mg | –
Oc1ccc(F)cc1-c1cc(-c2ccco2)[nH]n1 [′4082, 4-Fluoro-2-(5-(furan-2-yl)-1H-pyrazol-3-yl)phenol] | 5.884 ± 1.88 nmol/min/mg | –
Oc1cc(F)ccc1-c1cc(-c2ccco2)[nH]n1 [′4083, 5-Fluoro-2-(5-(furan-2-yl)-1H-pyrazol-3-yl)phenol] | 28.76 ± 9.41 nmol/min/mg | XylE activity in comparison to '8882 at 10 μM: activity similar to '8882; XylE activity in comparison to '8882 at 30 μM: activity similar to '8882; EC50: 20.9 µM; EC50 (read-out: logEC50 (converted)): 20.9 µM
Cn1ccc(-c2cc(-c3ccc4ccccc4c3O)n[nH]2)n1 [′6699, 2-(1-Methyl-1H,2′H-[3,3′-bipyrazol]-5′-yl)naphthalen-1-ol] | 5.138 ± 4.82 nmol/min/mg | –
Cn1ncc2cc(-c3cc(-c4ccc5ccccc5c4O)n[nH]3)ccc21 [′6700, 2-(5-(1-methyl-1H-indazol-5-yl)-1H-pyrazol-3-yl)naphthalen-1-ol] | 24.26 ± 3.69 nmol/min/mg | EC50: 8.18 µM; EC50 (read-out: logEC50 (converted)): 8.18 µM; XylE activity (ability to activate HssRS) in comparison to '8882: roughly equivalent to '8882
c1ccc(-c2cc(-c3ccco3)[nH]n2)nc1 [′7092, 2-(5-(Furan-2-yl)-1H-pyrazol-3-yl)pyridine] | 0.2374 ± 0.1354 nmol/min/mg | –
Oc1ncccc1-c1cc(-c2ccco2)[nH]n1 [′7268, 3-(5-(Furan-2-yl)-1H-pyrazol-3-yl)pyridin-2-ol] | 0.4793 ± 1.2179 nmol/min/mg | –
Cn1nccc1-c1cc(-c2ccc3ccccc3c2O)n[nH]1 [′8233, 2-(2′-Methyl-2H,2′H-[3,3′-bipyrazol]-5-yl)naphthalen-1-ol] | 0.5053 ± 0.294 nmol/min/mg | –
C#Cc1cc(-c2ccc3ccccc3c2O)n[nH]1 [′9128, 2-(5-Ethynyl-1H-pyrazol-3-yl)naphthalen-1-ol] | – | Specifc Activity (nMol/min*mg), data collected at 10 uM: 0.442 ± 0.089^a nMol/min*mg
Oc1c(-c2cc(-c3cc4ccccc4s3)[nH]n2)ccc2ccccc12 [′9130, 2-(5-(Benzo[b]thiophen-2-yl)-1H-pyrazol-3-yl)naphthalen-1-ol] | 1.012 ± 0.064 nmol/min/mg | –
Oc1c(-c2cc(-c3ccncc3)[nH]n2)ccc2ccccc12 [′9131] | 0.437 ± 0.26 nmol/min/mg | –
Oc1c(-c2cc(-c3ccsc3)[nH]n2)ccc2ccccc12 [′9132, 2-(5-(thiophen-3-yl)-1H-pyrazol-3-yl)naphthalen-1-ol] | 12.82 ± 1.12 nmol/min/mg | EC50: 26.2 µM; EC50 (read-out: logEC50 (converted)): 26.2 µM; XylE activity (ability to activate HssRS) in comparison to '8882: lost some activity compared with '8882
Oc1c(-c2cc(-c3cc4ccccc4o3)[nH]n2)ccc2ccccc12 [′9134, 2-(5-(Benzofuran-2-yl)-1H-pyrazol-3-yl)naphthalen-1-ol] | 0.130 ± 0.142 nmol/min/mg | –
Oc1c(-c2cc(C3CCCO3)[nH]n2)ccc2ccccc12 (stereo not shown) [′9437, 2-(5-(tetrahydrofuran-2-yl)-1H-pyrazol-3-yl)naphthalen-1-ol] | 0.088 ± 0.041 nmol/min/mg | –
Cc1ccc(-c2cc(-c3ccc4ccccc4c3O)n[nH]2)s1 [′9625, 2-(5-(5-Methylthiophen-2-yl)-1H-pyrazol-3-yl)naphthalen-1-ol] | 8.023 ± 1.065 nmol/min/mg | EC50: 13.1 µM; EC50 (read-out: logEC50 (converted)): 13.1 µM
Oc1c(-c2cc(-c3cccs3)[nH]n2)ccc2ccccc12 [′9626, 2-(5-(Thiophen-2-yl)-1H-pyrazol-3-yl)naphthalen-1-ol] | 28.86 ± 2.66 nmol/min/mg | XylE activity in comparison to '8882 at 10 μM: performed well; XylE activity in comparison to '8882 at 30 μM: comparable to '8882; EC50: 19.9 µM; EC50 (read-out: logEC50 (converted)): 19.9 µM
Cc1csc(-c2cc(-c3ccc4ccccc4c3O)n[nH]2)c1 [′9627, 2-(5-(4-Methylthiophen-2-yl)-1H-pyrazol-3-yl)naphthalen-1-ol] | 10.15 ± 3.65 nmol/min/mg | –
Cc1cnccc1-c1cc(-c2ccc3ccccc3c2O)n[nH]1 [′9767, 2-(5-(3-Methylpyridin-4-yl)-1H-pyrazol-3-yl)naphthalen-1-ol] | – | Specifc Activity (nMol/min*mg), data collected at 10 uM: 1.393 ± 0.392^a nMol/min*mg
C/C=C/c1cc(-c2ccc3ccccc3c2O)n[nH]1 [′9768, (E)-2-(5-(Prop-1-en-1-yl)-1H-pyrazol-3-yl)naphthalen-1-ol] | 6.951 ± 0.983 nmol/min/mg | –
Cc1sccc1-c1cc(-c2ccc3ccccc3c2O)n[nH]1 [′9769, 2-(5-(2-Methylthiophen-3-yl)-1H-pyrazol-3-yl)naphthalen-1-ol] | 4.922 ± 1.261 nmol/min/mg | –
